US20120225889A1, “USE OF MACROCYCLIC LACTONE DERIVATIVES FOR THE TREATMENT OF INFLAMMATORY DISORDERS” (PIRAMAL LIFE SCIENCES LIMITED, priority 2010, published 2012)

Assays:
TNF-α [1] = test: Screening in LPS stimulated THP-1 cells: TNF-α; type: cell-based; settings: Homo sapiens, 24 h, ELISA
Experimental: IL-6 (BD Biosciences, USA) production by LPS (Escherchia coli 0127:B8, Sigma, USA) in THP-1 cells (ATCC number: TIB202) was designed as in reference, Journal of Immunology, 151, 5631-5638, (1993), the disclosure of which is incorporated by reference for the teaching of the assay.
THP-1 cells were cultured in RPMI 1640 culture medium (Gibco BRL, UK) containing 100 U/mL penicillin and […] streptomycin, (100× solution, Sigma, USA) containing 10% FBS (JRH Biosciences, USA). 25,000 cells were seeded per well in 96-well plate (Nunc, USA). The cells were differentiated with PMA (Sigma, USA, prepared as 100 μg/mL stock in RPMI and was diluted to 5 ng/mL). The test compound (prepared as 20 mM stock in DMSO and diluted with DMSO to achieve the following final concentrations in the assay: 100, 10, 1, 0.1, 0.01, 0.001 and 0.0001 μM) or vehicle (0.5% DMSO) were added to the cells and the cells were incubated for 30 min at 37° C. LPS (Sigma, USA, prepared as 1 mg/mL stock in PBS) was added to achieve a final concentration of 1 μg/mL. Plates were incubated at 37° C. for 24 h at 5% CO2. Supernatants were harvested, and assayed for TNF-α and IL-6 by ELISA as described by the manufacturer (BD Biosciences, USA). Percent inhibition of cytokine release compared to the control was calculated. The IC50 values were calculated by a nonlinear regression method.

TNF-α [2] = test: hPBMC membrane-monocyte contact bioassay: TNF-α; type: cell-based, human; settings: activated hPBMC membranes, 24 h
Excerpt: The assay was designed as in reference, Immunology Letters, 117, 114-118, (2008), the disclosure of which is incorporated by reference for the teaching of the assay. Activated T cell contact-mediated monocyte activation, leading to the production of proinflammatory cytokines (e.g., TNF-α, IL-6), contributes to the pathogenesis of chronic inflammatory diseases including rheumatoid arthritis.
6-well plates (Nunc, USA) were coated with Goat anti-Mouse IgG, Fc (Chemicon, USA) at a concentration of 16.5 μL/mL in coating buffer ([…] NaHCO3, 3.56 g Na2CO3, pH 9.5).
The plates were incubated overnight at 4° C. under sterile conditions. […]
Following incubation, hPBMCs in separate wells of the 6-well plate were harvested, pooled together, and centrifuged. […] The pellet of hPBMC membranes was resuspended in lysis buffer (Sigma, USA) and the protein concentration was determined by the method of Bradford (Sigma, USA).
100 μL monocytes per well at 5×10^5 cells/mL were added to the 96-well plate (Nunc, USA) and cultured for 48 h at 37° C. […] Supernatants were collected after 24 h and TNF-α and IL-6 production was measured using OptiEIA ELISA sets, (BD BioSciences, USA). […]

With C/C=C/C(O)C(C)/C=C/C(=N\O)C(C)C(O)C(C)C1OC(=O)/C(OC)=C/C(C)=C/C(C)C(O)C(CC)C(O)C(C)C/C(C)=C/C=C/C1OC (centres unmarked) [Compound of example 7, (3Z,5E,13E,15E)-18-((5Z,6E,10E)-3,9-Dihydroxy-5-(hydroxymino)-4,8-dimethyldodeca-6,10-dien-2-yl)-9-ethyl-8,10-dihydroxy-3,17-dimethoxy-5,7,11,13-tetramethyl oxacyclooctadeca-3,5,13,15-tetraen-2-one] the IC50 (TNF-α [1]) was 18 µM and the “inhibition of TNF-α production from monocytes” value (TNF-α [2]) was “did not inhibit”.
